The values below come from publication PMC7827406, “Structure–Activity Relationship (SAR) Study of Spautin-1 to Entail the Discovery of Novel NEK4 Inhibitors” (International Journal of Molecular Sciences, 2021).

Where two headings read alike, the source gives them in different places.

Holding throughout (assay): biochemical
Common to all, as to design: Eurofins KinaseProfiler full panel at Km ATP, residual kinase activity (%) relative to DMSO

In one assay the target is T1, CaMKIIδ(h) (Homo sapiens, UniProt Q13557).
T1 construct: gene CAMK2D
T1 sequence (Q13557 whole entry): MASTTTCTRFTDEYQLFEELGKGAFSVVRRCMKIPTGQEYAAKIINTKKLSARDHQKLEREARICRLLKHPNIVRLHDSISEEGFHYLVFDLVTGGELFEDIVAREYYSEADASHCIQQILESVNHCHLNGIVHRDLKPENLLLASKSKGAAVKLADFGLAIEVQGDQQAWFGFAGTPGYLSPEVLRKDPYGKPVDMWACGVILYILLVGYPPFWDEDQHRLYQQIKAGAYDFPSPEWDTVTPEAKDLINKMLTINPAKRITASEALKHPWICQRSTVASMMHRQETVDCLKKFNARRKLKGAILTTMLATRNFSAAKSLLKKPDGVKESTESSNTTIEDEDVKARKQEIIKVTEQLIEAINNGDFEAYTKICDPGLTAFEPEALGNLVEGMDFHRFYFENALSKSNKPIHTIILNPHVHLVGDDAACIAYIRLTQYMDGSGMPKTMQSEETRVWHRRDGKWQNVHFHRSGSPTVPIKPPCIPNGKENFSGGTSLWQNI
The gist of the method: (§1)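 Radiometric kinase activity assays were run with ATP at Km and compounds at 10 µM, and remaining activity (%) was reported. A separate competitive binding screen measured DNA-tagged kinase displaced from immobilized active-site ligands by qPCR, giving percent kinase still bound at 10 µM compound in DMSO.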

For the next assay, the target named is T2, MST4(h) (Homo sapiens, UniProt Q9P289).
T2 construct: gene STK26
T2 sequence (Q9P289 whole entry): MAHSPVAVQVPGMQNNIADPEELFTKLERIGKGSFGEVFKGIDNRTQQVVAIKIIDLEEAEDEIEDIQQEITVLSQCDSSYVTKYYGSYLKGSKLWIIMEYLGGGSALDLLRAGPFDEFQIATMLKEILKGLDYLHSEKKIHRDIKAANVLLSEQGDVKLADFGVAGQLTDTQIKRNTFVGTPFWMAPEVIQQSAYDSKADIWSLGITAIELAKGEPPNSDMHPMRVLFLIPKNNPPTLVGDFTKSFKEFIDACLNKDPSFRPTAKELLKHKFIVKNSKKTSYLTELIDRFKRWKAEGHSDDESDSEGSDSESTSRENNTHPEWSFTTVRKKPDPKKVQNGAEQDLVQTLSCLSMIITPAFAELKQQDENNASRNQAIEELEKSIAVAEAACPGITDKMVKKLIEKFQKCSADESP
The gist of the method: as §1

The target of another assay is T3, BRK(h) (Homo sapiens, UniProt Q13882).
T3 construct: gene PTK6
T3 sequence (Q13882 whole entry): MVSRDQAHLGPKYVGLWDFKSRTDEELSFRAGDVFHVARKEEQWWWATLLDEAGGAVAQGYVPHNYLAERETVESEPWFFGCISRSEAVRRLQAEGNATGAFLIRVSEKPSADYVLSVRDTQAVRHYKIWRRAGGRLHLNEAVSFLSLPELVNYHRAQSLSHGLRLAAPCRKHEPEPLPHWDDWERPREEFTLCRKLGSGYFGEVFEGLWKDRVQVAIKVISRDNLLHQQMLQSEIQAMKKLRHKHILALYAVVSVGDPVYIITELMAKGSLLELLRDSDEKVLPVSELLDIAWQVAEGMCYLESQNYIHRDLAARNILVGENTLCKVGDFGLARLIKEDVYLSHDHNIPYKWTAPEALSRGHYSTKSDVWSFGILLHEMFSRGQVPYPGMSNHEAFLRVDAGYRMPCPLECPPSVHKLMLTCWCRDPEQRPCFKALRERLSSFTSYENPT
The method in brief: as §1

The next assay deals with T4, p70S6K(h) (Homo sapiens, UniProt P23443).
T4 construct: gene RPS6KB1
T4 sequence (P23443 whole entry): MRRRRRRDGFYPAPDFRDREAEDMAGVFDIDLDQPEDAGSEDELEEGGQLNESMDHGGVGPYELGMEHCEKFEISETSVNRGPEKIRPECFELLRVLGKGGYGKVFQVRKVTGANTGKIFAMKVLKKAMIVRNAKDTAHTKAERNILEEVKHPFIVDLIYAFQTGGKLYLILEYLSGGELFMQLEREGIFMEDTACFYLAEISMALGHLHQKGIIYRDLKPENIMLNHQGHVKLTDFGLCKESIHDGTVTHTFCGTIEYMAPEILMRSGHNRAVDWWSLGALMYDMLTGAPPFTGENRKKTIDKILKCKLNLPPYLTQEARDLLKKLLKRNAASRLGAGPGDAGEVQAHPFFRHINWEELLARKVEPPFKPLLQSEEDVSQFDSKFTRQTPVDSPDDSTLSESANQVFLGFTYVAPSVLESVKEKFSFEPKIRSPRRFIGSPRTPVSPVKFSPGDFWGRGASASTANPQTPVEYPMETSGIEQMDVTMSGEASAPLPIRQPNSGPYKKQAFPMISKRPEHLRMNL
The method in brief: as §1

The target in the next assay is T5, Aurora-A(h) (Homo sapiens, UniProt O14965).
T5 construct: gene AURKA
T5 sequence (O14965 1-403): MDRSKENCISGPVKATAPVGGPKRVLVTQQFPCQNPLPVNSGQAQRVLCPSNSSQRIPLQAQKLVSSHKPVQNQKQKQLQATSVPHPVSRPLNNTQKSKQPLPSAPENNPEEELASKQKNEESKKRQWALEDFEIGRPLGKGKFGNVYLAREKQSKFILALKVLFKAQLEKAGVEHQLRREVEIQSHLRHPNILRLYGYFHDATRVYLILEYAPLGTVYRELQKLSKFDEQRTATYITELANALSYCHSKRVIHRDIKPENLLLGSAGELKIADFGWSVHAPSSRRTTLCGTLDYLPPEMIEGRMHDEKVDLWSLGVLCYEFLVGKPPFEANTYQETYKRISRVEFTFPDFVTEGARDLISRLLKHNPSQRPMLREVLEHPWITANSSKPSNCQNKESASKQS
The gist of the method: as §1

Another assay deals with T6, cKit(D816V)(h) (Homo sapiens, UniProt P10721, D816V).
T6 construct: gene KIT
T6 sequence (P10721 whole entry D816V): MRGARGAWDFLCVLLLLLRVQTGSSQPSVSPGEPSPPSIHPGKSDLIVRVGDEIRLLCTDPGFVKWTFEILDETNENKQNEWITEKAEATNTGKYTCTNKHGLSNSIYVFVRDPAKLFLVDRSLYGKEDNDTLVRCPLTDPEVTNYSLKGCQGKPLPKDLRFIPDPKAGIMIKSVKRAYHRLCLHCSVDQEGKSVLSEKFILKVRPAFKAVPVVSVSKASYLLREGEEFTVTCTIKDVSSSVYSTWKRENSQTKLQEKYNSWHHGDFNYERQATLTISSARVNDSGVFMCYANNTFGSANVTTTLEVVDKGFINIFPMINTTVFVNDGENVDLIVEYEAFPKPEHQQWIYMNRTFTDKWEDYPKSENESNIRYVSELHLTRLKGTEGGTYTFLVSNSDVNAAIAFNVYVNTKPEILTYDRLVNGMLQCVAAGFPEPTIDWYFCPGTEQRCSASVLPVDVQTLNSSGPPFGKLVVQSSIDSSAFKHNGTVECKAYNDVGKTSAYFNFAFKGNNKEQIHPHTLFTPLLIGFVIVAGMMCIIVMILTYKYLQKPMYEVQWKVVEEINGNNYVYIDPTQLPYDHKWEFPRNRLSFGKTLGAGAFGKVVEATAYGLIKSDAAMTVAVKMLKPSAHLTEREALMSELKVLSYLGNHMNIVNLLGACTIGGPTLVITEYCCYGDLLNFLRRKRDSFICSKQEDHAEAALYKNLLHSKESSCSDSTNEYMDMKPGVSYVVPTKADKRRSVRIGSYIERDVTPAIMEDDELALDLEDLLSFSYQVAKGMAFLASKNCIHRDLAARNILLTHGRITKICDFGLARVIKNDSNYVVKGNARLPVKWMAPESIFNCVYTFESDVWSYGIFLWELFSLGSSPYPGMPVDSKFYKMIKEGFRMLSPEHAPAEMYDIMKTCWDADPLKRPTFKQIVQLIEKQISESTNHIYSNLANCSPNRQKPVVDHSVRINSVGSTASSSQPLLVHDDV
The method in brief: as §1

The target in the next assay is T7, DCAMKL1(h) (Homo sapiens, UniProt O15075).
T7 construct: gene DCLK1
T7 sequence (O15075 1-740): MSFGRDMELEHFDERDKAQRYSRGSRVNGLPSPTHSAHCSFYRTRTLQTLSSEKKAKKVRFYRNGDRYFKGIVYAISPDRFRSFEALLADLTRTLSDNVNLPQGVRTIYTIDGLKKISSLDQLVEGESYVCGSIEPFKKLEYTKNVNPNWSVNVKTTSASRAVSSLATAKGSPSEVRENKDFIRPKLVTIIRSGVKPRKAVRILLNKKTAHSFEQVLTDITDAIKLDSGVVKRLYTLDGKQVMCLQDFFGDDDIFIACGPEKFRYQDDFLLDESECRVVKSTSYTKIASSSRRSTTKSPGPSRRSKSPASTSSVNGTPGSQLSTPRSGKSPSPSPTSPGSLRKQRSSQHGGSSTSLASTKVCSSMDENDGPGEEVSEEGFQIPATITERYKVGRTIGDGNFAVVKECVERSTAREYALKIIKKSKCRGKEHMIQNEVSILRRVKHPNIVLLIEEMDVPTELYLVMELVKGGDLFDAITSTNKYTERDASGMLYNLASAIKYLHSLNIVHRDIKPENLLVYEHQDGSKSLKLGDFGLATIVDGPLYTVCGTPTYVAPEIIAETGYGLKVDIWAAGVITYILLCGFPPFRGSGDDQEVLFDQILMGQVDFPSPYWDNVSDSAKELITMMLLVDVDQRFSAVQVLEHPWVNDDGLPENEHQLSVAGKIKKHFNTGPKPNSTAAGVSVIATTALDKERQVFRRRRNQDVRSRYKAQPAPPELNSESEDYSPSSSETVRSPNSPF
The method in brief: as §1

In another assay the target is T8, CDK5/p25(h) (Homo sapiens, UniProt Q00535).
T8 construct: p25
T8 sequence (Q00535 whole entry): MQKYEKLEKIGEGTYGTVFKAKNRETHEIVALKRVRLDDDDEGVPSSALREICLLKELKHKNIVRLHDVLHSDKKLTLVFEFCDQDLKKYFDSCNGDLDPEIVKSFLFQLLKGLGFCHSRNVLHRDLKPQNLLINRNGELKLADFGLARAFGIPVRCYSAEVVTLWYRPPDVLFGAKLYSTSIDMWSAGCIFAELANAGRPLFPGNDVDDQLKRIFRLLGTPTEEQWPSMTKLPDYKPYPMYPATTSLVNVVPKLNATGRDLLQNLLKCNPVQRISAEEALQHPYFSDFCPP
T8 sequence (Q15078 whole entry partner): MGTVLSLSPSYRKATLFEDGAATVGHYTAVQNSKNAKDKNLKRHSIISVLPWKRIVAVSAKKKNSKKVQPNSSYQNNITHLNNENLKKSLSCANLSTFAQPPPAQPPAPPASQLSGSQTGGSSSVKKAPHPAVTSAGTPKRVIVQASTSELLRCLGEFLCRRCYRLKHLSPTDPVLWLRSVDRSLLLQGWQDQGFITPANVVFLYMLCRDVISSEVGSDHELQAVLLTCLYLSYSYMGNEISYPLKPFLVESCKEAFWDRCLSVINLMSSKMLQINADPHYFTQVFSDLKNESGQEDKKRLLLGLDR
The gist of the method:
as §1

In the next assay the target is T9, CHK1(h) (Homo sapiens, UniProt O14757).
T9 construct: gene CHEK1
T9 sequence (O14757 1-476): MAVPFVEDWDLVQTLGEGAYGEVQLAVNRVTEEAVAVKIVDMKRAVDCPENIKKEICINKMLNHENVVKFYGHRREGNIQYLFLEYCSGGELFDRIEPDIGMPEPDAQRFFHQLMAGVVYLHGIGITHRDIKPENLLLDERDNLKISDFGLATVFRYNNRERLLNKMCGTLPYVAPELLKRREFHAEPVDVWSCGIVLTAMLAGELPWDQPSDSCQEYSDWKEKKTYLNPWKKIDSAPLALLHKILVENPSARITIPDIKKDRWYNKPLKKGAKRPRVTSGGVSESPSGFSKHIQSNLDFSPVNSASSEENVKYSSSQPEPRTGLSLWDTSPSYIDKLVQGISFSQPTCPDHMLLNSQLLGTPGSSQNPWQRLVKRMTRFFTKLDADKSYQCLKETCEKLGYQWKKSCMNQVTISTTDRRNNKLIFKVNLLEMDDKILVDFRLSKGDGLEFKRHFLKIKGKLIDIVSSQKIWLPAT
The gist of the method: as §1

Where [1] appears, read: read-out: Residual activity (%) Spautin-1 5aa.
The mark [2] stands for this setting: read-out: Residual activity (%) 5as.
The mark [3] stands for this setting: read-out: Residual activity (%) 5at.
Setting [4] is: read-out: Residual activity (%) 5ay.

For the compound `Fc1ccc(CNc2ncnc3ccc(F)cc23)cc1` [5aa, 6-Fluoro-N-(4-fluorobenzyl)-4-Quinazolinamine], the remaining activity at 10 µM on CaMKIIδ(h) (setting [1]) is 90%; on MST4(h) (setting [1]), 58%; on BRK(h) (setting [1]), 105%; at p70S6K(h) (setting [1]) it was 91%; on Aurora-A(h) (setting [1]) it was 81%; on cKit(D816V)(h) (setting [1]) it was 105%. Moreover, the figures for the remaining activity at 10 µM on DCAMKL1(h) (setting [1]), at CDK5/p25(h) (setting [1]) and at CHK1(h) (setting [1]) were 95%, 73% and 80%, respectively.
`Fc1ccc(CCNc2ncnc3ccc(F)cc23)cc1` [5as, 6-Fluoro-N-[2-(4-Fluorophenyl)Ethyl]-4-Quinazolinamine]: the remaining activity at 10 µM at CaMKIIδ(h) (setting [2]) is 79%; at MST4(h) (setting [2]), 81%; at BRK(h) (setting [2]), 87%; at p70S6K(h) (setting [2]) it was 81%; on Aurora-A(h) (setting [2]), 87%; on cKit(D816V)(h) (setting [2]), 111%. For the same compound, the values for the remaining activity at 10 µM at DCAMKL1(h) (setting [2]), on CDK5/p25(h) (setting [2]) and on CHK1(h) (setting [2]) were 82%, 89% and 69%, respectively.
For the compound `Fc1ccc2ncnc(NCCc3ccc(Cl)cc3)c2c1` [5at, N-[2-(4-Chlorophenyl)Ethyl]-6-Fluoro-4-Quinazolinamine], the remaining activity at 10 µM at CaMKIIδ(h) (setting [3]) was 77%; on MST4(h) (setting [3]) it was 72%; on BRK(h) (setting [3]) it was 96%; at p70S6K(h) (setting [3]), 83%; on Aurora-A(h) (setting [3]), 70%; at cKit(D816V)(h) (setting [3]), 98%. The remaining activity at 10 µM at DCAMKL1(h) (setting [3]) is 89%; at CDK5/p25(h) (setting [3]) it was 86%; at CHK1(h) (setting [3]), 73%.
Consider `COc1ccc2ncnc(Nc3cccc(F)c3)c2c1` [5ay, N-(3-Fluorophenyl)-6-Methoxy-4-Quinazolinamine], for which the remaining activity at 10 µM at CaMKIIδ(h) (setting [4]) was 41%; on MST4(h) (setting [4]) it was 64%; at BRK(h) (setting [4]), 71%; on p70S6K(h) (setting [4]) it was 76%; at Aurora-A(h) (setting [4]) it was 79%; at cKit(D816V)(h) (setting [4]), 125%. The remaining activity at 10 µM on DCAMKL1(h) (setting [4]) is 84%; on CDK5/p25(h) (setting [4]), 80%; at CHK1(h) (setting [4]), 76%.
